# Data reported in ChEMBL document CHEMBL3400086, “Thieno[2,3-b]pyridines as negative allosteric modulators of metabotropic GluR5 receptors: Lead optimization” (Bioorg Med Chem Lett, 2015).
# Key:
# Liver microsome [1] = assay: Intrinsic clearance in human liver microsomes measured per gram of tissue at 2.5 uM; assay type: ADME
# [2] = biological target: T1, Metabotropic glutamate receptor 5 (Rattus norvegicus, UniProt P31424); assay: Negative allosteric modulation of mGlu5 receptor in primary E17 rat embryo neuron assessed as ca2+ level by fluo-4/AM assay
# T1 sequence (P31424 whole entry): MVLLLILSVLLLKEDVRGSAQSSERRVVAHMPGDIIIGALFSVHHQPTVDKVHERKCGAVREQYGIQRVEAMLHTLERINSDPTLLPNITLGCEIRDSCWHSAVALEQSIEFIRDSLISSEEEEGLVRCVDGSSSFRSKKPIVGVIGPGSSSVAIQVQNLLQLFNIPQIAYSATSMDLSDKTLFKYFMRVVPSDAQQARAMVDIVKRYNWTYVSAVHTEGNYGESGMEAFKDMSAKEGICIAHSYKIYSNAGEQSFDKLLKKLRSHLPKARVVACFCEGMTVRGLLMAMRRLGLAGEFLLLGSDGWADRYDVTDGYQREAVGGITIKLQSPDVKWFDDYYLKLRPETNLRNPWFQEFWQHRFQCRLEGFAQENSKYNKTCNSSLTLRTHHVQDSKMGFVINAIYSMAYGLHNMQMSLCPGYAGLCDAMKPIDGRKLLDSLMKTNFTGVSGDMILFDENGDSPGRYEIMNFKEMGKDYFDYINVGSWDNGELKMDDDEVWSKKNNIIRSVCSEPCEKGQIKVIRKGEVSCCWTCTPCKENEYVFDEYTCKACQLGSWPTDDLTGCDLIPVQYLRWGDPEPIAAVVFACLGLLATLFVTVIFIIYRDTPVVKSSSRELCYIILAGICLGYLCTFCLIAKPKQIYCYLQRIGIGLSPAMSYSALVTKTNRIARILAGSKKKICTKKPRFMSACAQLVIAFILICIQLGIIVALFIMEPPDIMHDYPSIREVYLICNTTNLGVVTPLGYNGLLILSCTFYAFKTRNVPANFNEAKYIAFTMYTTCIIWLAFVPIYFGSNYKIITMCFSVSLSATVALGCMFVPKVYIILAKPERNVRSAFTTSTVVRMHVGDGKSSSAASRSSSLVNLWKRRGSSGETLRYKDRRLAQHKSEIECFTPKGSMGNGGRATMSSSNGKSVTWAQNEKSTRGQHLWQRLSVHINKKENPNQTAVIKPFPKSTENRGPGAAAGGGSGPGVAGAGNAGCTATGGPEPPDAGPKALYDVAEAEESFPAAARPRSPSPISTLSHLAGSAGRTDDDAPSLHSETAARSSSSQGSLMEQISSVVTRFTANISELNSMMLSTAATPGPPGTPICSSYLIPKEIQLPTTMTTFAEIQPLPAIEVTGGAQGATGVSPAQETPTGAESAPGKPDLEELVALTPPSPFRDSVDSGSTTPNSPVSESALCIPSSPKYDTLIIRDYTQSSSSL
# Liver microsome [3] = assay: Intrinsic clearance in Wistar rat liver microsomes measured per gram of tissue at 2.5 uM; assay type: ADME
# [4] = biological target: T1, Metabotropic glutamate receptor 5; assay: Displacement of [3H]-M-MPEP from rat cerebrocortical mGluR5 receptor
# [5] = biological target: Metabotropic glutamate receptor 5 (Rattus norvegicus) (UniProt P31424); assay: Displacement of [3H]-M-MPEP from rat cerebrocortical mGluR5 receptor at 1 uM
# Metabotropic glutamate receptor 5 (Rattus norvegicus), sequence (P31424 21-1203 limits assumed): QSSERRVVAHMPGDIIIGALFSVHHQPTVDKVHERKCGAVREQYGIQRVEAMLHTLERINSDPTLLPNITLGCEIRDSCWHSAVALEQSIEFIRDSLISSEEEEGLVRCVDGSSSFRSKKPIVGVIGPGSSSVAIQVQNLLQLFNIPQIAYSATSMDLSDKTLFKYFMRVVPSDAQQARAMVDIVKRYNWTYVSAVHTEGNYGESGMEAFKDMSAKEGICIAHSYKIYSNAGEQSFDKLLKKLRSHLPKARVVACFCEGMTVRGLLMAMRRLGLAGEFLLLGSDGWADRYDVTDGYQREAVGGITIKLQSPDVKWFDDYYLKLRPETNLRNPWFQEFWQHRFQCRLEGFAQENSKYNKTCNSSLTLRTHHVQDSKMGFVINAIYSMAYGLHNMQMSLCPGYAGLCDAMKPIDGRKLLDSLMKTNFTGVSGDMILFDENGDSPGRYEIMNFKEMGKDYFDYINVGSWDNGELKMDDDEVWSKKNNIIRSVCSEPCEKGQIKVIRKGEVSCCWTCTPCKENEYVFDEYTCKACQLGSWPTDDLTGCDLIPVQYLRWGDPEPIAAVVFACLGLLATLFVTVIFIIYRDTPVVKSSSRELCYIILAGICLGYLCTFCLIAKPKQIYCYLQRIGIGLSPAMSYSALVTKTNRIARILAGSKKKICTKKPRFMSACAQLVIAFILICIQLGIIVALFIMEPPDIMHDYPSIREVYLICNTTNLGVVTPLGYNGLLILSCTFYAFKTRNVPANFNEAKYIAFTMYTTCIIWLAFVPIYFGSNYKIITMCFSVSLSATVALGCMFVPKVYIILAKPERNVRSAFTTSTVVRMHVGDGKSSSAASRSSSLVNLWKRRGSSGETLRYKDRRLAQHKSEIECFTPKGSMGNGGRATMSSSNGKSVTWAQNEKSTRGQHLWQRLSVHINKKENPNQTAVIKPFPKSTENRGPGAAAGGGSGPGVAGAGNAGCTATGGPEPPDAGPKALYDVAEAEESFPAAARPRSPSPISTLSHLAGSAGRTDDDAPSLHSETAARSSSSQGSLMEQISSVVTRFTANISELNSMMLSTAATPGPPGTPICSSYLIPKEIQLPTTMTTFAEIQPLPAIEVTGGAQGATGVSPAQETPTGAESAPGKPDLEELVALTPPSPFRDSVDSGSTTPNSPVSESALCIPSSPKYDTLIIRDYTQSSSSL
CLH (Liver microsome [1]),IC50 [2],CLH (Liver microsome [3]),Ki [4],inhibition [5],Compound
1.1 mL/min/g,1.6 nM,2.5 mL/min/g,1.5 nM,,N#Cc1cc(F)cc(S(=O)(=O)c2sc3ncc(N)cc3c2-c2ccccc2F)c1
1.4 mL/min/g,,3.6 mL/min/g,,19%,N#Cc1cccc(S(=O)(=O)c2sc3nc(Cl)ccc3c2-c2ccc(Cl)cc2)c1
0.8 mL/min/g,6.4 nM,1.2 mL/min/g,2.8 nM,,N#Cc1cc(F)cc(S(=O)(=O)c2sc3ncc(N)cc3c2-c2ccc(F)cc2)c1
,,,,35%,Cc1nc(C)c(S(=O)(=O)c2sc3ncccc3c2-c2ccc(Cl)cc2)s1
,,,,25%,O=S(=O)(Cc1ccccc1)c1sc2ncccc2c1-c1ccc(Cl)cc1
0.04 mL/min/g,338 nM,0.9 mL/min/g,60 nM,,O=S(=O)(c1ccc(Cl)cc1)c1sc2nc(O)ccc2c1-c1ccc(Cl)cc1
3.4 mL/min/g,92 nM,13.6 mL/min/g,22 nM,,O=S(=O)(c1ccc(Cl)cc1)c1sc2ncccc2c1-c1ccc(F)cc1
2.1 mL/min/g,10.6 nM,2.1 mL/min/g,2.4 nM,,N#Cc1cc(F)cc(S(=O)(=O)c2sc3ncccc3c2-c2ccc(F)cc2)c1
2.4 mL/min/g,30 nM,12.8 mL/min/g,4.1 nM,,N#Cc1cccc(S(=O)(=O)c2sc3ncccc3c2-c2ccc(Cl)cc2)c1
0.6 mL/min/g,4.9 nM,2.9 mL/min/g,2.5 nM,,N#Cc1cc(F)cc(S(=O)(=O)c2sc3nc(F)ccc3c2-c2cccc(F)c2)c1
0.01 mL/min/g,1030 nM,3.4 mL/min/g,93 nM,,O=S(=O)(c1ccc(Cl)cc1)c1sc2nc(Cl)ccc2c1-c1ccc(Cl)cc1
1 mL/min/g,48 nM,1.4 mL/min/g,8.3 nM,,N#Cc1cccc(S(=O)(=O)c2sc3nc(F)ccc3c2-c2ccc(Cl)cc2)c1
,,,,32%,O=S(=O)(c1ccccc1Cl)c1sc2ncccc2c1-c1ccc(Cl)cc1
0.9 mL/min/g,38 nM,1.5 mL/min/g,,,N#Cc1cc(F)cc(S(=O)(=O)c2sc3ncc(N)cc3c2-c2cccc(Cl)c2)c1
2.4 mL/min/g,135 nM,4.1 mL/min/g,51 nM,,O=S(=O)(c1ccc(Cl)cc1)c1sc2ncccc2c1-c1ccccc1F
3 mL/min/g,,9.3 mL/min/g,,11%,O=S(=O)(c1ccc(Cl)cc1)c1sc2ncccc2c1Oc1ccc(Cl)cc1
,,,,6%,CC(=O)Nc1ccc(S(=O)(=O)c2sc3ncccc3c2-c2ccc(Cl)cc2)cc1
1.1 mL/min/g,34 nM,1 mL/min/g,9.3 nM,,N#Cc1cc(F)cc(S(=O)(=O)c2sc3ncccc3c2-c2cnccc2Cl)c1
0.1 mL/min/g,172 nM,3.8 mL/min/g,26 nM,,O=S(=O)(c1ccc(Cl)cc1)c1sc2nc(F)ccc2c1-c1ccc(Cl)cc1
1.5 mL/min/g,2.4 nM,2.4 mL/min/g,2.2 nM,,N#Cc1cc(F)cc(S(=O)(=O)c2sc3ncccc3c2-c2cccc(F)c2)c1
,,,,30%,CCCCS(=O)(=O)c1sc2ncccc2c1-c1ccc(Cl)cc1
0.6 mL/min/g,18 nM,0.7 mL/min/g,15.2 nM,,N#Cc1cc(F)cc(S(=O)(=O)c2sc3ncc(N)cc3c2-c2cnccc2F)c1

CLH (Liver microsome [1]),IC50 [2],CLH (Liver microsome [3]),Ki [4],inhibition [5],Compound
3.9 mL/min/g,111 nM,15.7 mL/min/g,21 nM,,Cc1ccc(-c2c(S(=O)(=O)c3ccc(Cl)cc3)sc3ncccc23)cc1
1 mL/min/g,,6.5 mL/min/g,,20%,COc1ccnc2sc(S(=O)(=O)c3ccc(Cl)cc3)c(-c3ccc(Cl)cc3)c12
0.4 mL/min/g,46 nM,1.1 mL/min/g,39 nM,,N#Cc1cccc(S(=O)(=O)c2sc3nc(O)ccc3c2-c2ccc(Cl)cc2)c1
,,,,39%,CC1CCN(S(=O)(=O)c2sc3ncccc3c2-c2ccc(Cl)cc2)CC1
1.3 mL/min/g,30 nM,1 mL/min/g,2.2 nM,,N#Cc1cc(F)cc(S(=O)(=O)c2sc3ncc(N)cc3c2-c2ccc(Cl)cc2)c1
0.9 mL/min/g,9 nM,1 mL/min/g,2.7 nM,,N#Cc1cc(F)cc(S(=O)(=O)c2sc3ncc(N)cc3c2-c2ccc(F)c(F)c2)c1
0.9 mL/min/g,22 nM,1 mL/min/g,13.6 nM,,N#Cc1cc(F)cc(S(=O)(=O)c2sc3ncccc3c2-c2cnccc2F)c1
0.01 mL/min/g,374 nM,0.5 mL/min/g,83 nM,,Nc1ccc2c(-c3ccc(Cl)cc3)c(S(=O)(=O)c3ccc(Cl)cc3)sc2n1
0.3 mL/min/g,,4.2 mL/min/g,,50%,COc1ccc2c(-c3ccc(Cl)cc3)c(S(=O)(=O)c3cccc(C#N)c3)sc2n1
,,,,30%,O=S(=O)(NCc1ccc(Cl)cc1)c1sc2ncccc2c1-c1ccc(Cl)cc1
3.8 mL/min/g,,9.5 mL/min/g,26 nM,,CN(C)c1ccnc2sc(S(=O)(=O)c3ccc(Cl)cc3)c(-c3ccc(Cl)cc3)c12
,,,,0%,Cc1noc(C)c1S(=O)(=O)c1sc2ncccc2c1-c1ccc(Cl)cc1
3.5 mL/min/g,14 nM,2 mL/min/g,2.8 nM,,N#Cc1cc(F)cc(S(=O)(=O)c2sc3nc(F)ccc3c2-c2ccc(F)cc2)c1
2.3 mL/min/g,123 nM,4.1 mL/min/g,38 nM,,O=S(=O)(c1ccc(Cl)cc1)c1sc2ncccc2c1-c1cccc(F)c1
1.7 mL/min/g,127 nM,1.8 mL/min/g,37 nM,,Nc1cnc2sc(S(=O)(=O)c3ccc(Cl)cc3)c(-c3cccc(F)c3)c2c1
2.5 mL/min/g,,9.7 mL/min/g,31 nM,,O=S(=O)(c1ccc(Cl)cc1)c1sc2ncccc2c1-c1ccc(Cl)c(Cl)c1
2.7 mL/min/g,,13.5 mL/min/g,23 nM,,COc1ccc(-c2c(S(=O)(=O)c3cccc(C#N)c3)sc3ncccc23)cc1
0.8 mL/min/g,6.1 nM,1.04 mL/min/g,2.4 nM,,N#Cc1cc(F)cc(S(=O)(=O)c2sc3ncc(N)cc3c2-c2cc(F)cc(F)c2)c1
2.1 mL/min/g,,9.6 mL/min/g,4.5 nM,,N#Cc1cccc(S(=O)(=O)c2sc3ncccc3c2-c2ccc(F)cc2)c1
3.6 mL/min/g,,12.1 mL/min/g,214 nM,,O=S(=O)(c1ccc(Cl)cc1)c1sc2nccc(F)c2c1-c1ccc(Cl)cc1
0.6 mL/min/g,,2.1 mL/min/g,20 nM,,N#Cc1cc(F)cc(S(=O)(=O)c2sc3nc(Cl)ccc3c2-c2ccc(F)cc2)c1
1.6 mL/min/g,,0.4 mL/min/g,9 nM,,N#Cc1cccc(S(=O)(=O)c2sc3ncc(N)cc3c2-c2ccc(Cl)cc2)c1

CLH (Liver microsome [1]),IC50 [2],CLH (Liver microsome [3]),Ki [4],inhibition [5],Compound
1.6 mL/min/g,77 nM,0.7 mL/min/g,19.1 nM,,Nc1cnc2sc(S(=O)(=O)c3ccc(Cl)cc3)c(-c3ccc(Cl)cc3)c2c1
,,,,20%,O=S(=O)(Nc1ccc(Cl)cc1)c1sc2ncccc2c1-c1ccc(Cl)cc1
0.01 mL/min/g,363 nM,2.8 mL/min/g,69 nM,,O=S(=O)(c1ccc(Cl)cc1)c1sc2ncc(Cl)cc2c1-c1ccc(Cl)cc1
2.4 mL/min/g,1.5 nM,3.5 mL/min/g,1.1 nM,,N#Cc1cc(F)cc(S(=O)(=O)c2sc3ncccc3c2-c2ccccc2F)c1
2.6 mL/min/g,11 nM,2 mL/min/g,8.9 nM,,N#Cc1cc(F)cc(S(=O)(=O)c2sc3ncccc3c2-c2cccc(Cl)c2)c1
3.3 mL/min/g,,17.3 mL/min/g,3 nM,,Cc1ccc(-c2c(S(=O)(=O)c3cccc(C#N)c3)sc3ncccc23)cc1
1.4 mL/min/g,18 nM,3.4 mL/min/g,2 nM,,N#Cc1cc(F)cc(S(=O)(=O)c2sc3ncccc3c2-c2ccc(Cl)cc2)c1
,,,,34%,O=S(=O)(c1cccs1)c1sc2ncccc2c1-c1ccc(Cl)cc1
2.8 mL/min/g,172 nM,3.7 mL/min/g,64 nM,,O=S(=O)(c1ccc(Cl)cc1)c1sc2ncccc2c1-c1ccccc1Cl
0.3 mL/min/g,44 nM,0.5 mL/min/g,44 nM,,N#Cc1cc(F)cc(S(=O)(=O)c2sc3ncc(N)cc3c2-c2ccncc2F)c1
0.01 mL/min/g,,2.6 mL/min/g,652 nM,,COc1ccc2c(-c3ccc(Cl)cc3)c(S(=O)(=O)c3ccc(Cl)cc3)sc2n1
,,,,14%,O=S(=O)(c1sc2ncccc2c1-c1ccc(Cl)cc1)C1CCCCC1
1.1 mL/min/g,34 nM,1 mL/min/g,9.3 nM,,N#Cc1cc(F)cc(S(=O)(=O)c2sc3ncc(N)cc3c2-c2cnccc2Cl)c1
3.7 mL/min/g,,4.3 mL/min/g,13 nM,,N#Cc1cc(F)cc(S(=O)(=O)c2sc3ncccc3c2-c2ccoc2)c1
2.6 mL/min/g,45 nM,10.8 mL/min/g,14.3 nM,,N#Cc1cccc(S(=O)(=O)c2sc3ncccc3c2-c2cccc(Cl)c2)c1
1.3 mL/min/g,,2.8 mL/min/g,37 nM,,O=S(=O)(c1ccc(Cl)cc1)c1sc2ncccc2c1-c1cccc(Cl)c1
1.1 mL/min/g,105 nM,3.9 mL/min/g,85 nM,,N#Cc1cccc(-c2c(S(=O)(=O)c3cccc(C#N)c3)sc3ncccc23)c1
1.9 mL/min/g,,13.9 mL/min/g,4.8 nM,,N#Cc1cccc(S(=O)(=O)c2sc3ncccc3c2-c2cccc(F)c2)c1
1 mL/min/g,,0.7 mL/min/g,44 nM,,N#Cc1cc(F)cc(S(=O)(=O)c2sc3ncc(N)cc3c2-c2ccncc2Cl)c1
,,,,0%,Cc1cc(C)c(S(=O)(=O)c2sc3ncccc3c2-c2ccc(Cl)cc2)c(C)c1
3.3 mL/min/g,44 nM,17.7 mL/min/g,14.2 nM,,Cc1cccc(-c2c(S(=O)(=O)c3cccc(C#N)c3)sc3ncccc23)c1
